These results are taken from ChEMBL document CHEMBL1137623, “Synthesis and in-vitro biological activity of macrocyclic urea Chk1 inhibitors” (Bioorg Med Chem Lett, 2007).

Assay [1] has as its target T1, Serine/threonine-protein kinase Chk1 (Homo sapiens, UniProt O14757).
T1 sequence (O14757 whole entry): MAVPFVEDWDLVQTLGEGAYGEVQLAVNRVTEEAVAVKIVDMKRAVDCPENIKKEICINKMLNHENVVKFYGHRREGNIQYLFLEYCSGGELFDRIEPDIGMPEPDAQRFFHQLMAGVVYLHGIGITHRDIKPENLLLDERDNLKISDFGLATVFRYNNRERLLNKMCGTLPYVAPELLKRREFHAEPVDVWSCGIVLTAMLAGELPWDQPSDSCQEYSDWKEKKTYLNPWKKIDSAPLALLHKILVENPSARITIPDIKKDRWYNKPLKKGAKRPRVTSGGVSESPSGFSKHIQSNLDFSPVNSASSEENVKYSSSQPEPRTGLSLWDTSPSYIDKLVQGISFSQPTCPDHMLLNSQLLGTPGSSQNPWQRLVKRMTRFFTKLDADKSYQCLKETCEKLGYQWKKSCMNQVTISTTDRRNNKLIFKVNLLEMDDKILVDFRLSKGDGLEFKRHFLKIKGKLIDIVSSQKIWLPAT
Put plainly: Inhibition of Chk1 enzyme by radiometric assay.

The test system of the next assay is HeLa. Briefly: Antiproliferative activity against human HeLa cells by MTS assay. Format: functional, cell-based.
A further assay concerns NCI-H1299. Put plainly: Cell cycle arrest in human NCI-H1299 cells assessed as accumulation at G2/M phase by FACS. In kind it is functional, cell-based. Background: Flow cytometry measures light scatter and fluorescence of single cells or particles in a stream.

pEC50, pIC50: −log10 of the molar value.

Take `N#Cc1ncc2nc1OCCCCCOc1ccc(OCCCCN3CCOCC3)cc1NC(=O)N2`: the pIC50 in assay [1] was 8.52.
With `N#Cc1ncc2nc1OC/C=C\COc1ccc(OCCCCN3CCOCC3)cc1NC(=O)N2`, the pIC50 in assay [1] is 8.40. In the assay on HeLa, this compound had a pEC50 of 5.12.
In the case of `CCOc1ccc2c(c1)NC(=O)Nc1cnc(C#N)c(n1)OCC/C=C\CO2`, the pEC50 with NCI-H1299 is less than 5.00; in the assay with HeLa it was less than 4.23. This compound showed a pIC50 in assay [1] of 7.72.
The matching figures for `N#Cc1ncc2nc1OCCCCCOc1ccc(Cl)cc1NC(=O)N2`: less than 5.00, 4.24 and 7.96.
The matching figures for `N#Cc1ncc2nc1OC/C=C\COc1ccc(Cl)cc1NC(=O)N2`: less than 5.00, less than 4.23 and 8.30.
The matching figures for `N#Cc1ncc2nc1OCC/C=C\COc1ccc(CCCOC3CCCCO3)cc1NC(=O)N2` (stereo not drawn): less than 5.00, less than 4.23 and 7.04.
As for `CC(=O)Nc1ccc2c(c1)NC(=O)Nc1cnc(C#N)c(n1)OCC/C=C\CO2`, the pIC50 in the assay on NCI-H1299 was less than 5.00; in assay [1], 7.80. The pEC50 in the assay on HeLa is 4.40.
For the compound `N#Cc1ncc2nc1OCC/C=C\COc1ccc(OCCOC3CCCCO3)cc1NC(=O)N2` (stereo not drawn), the pEC50 in the assay with NCI-H1299 is less than 5.00; with HeLa it was 4.51. The same compound gave a pIC50 in assay [1] of 7.72.
`N#Cc1ncc2nc1OCC/C=C\COc1ccc(OCCCN3CCOCC3)cc1NC(=O)N2`: the figures for the pEC50 in the assay with NCI-H1299 and with HeLa were less than 5.00 and less than 4.23, respectively. Also, in assay [1], the pIC50 was 8.30.
As for `CC(=O)Nc1ccc2c(c1)NC(=O)Nc1cnc(C#N)c(n1)OCCCCCO2`, the pIC50 in assay [1] was 8.10.
Regarding `N#Cc1ncc2nc1OCC/C=C\COc1ccc(CCO)cc1NC(=O)N2`, the pEC50 in the assay on NCI-H1299 is less than 5.00. This compound also showed a pIC50 in assay [1] of 7.01.
As for `COc1ccc(NC(C)=O)cc1NC(=O)Nc1cnc(C#N)cn1`, the pIC50 in assay [1] was 7.66.
With `N#Cc1ncc2nc1OCCCCCOc1ccc(CCCO)cc1NC(=O)N2`, the results for the pEC50 with NCI-H1299 and in the assay with HeLa were less than 5.00 and less than 4.23, respectively. The compound further gave a pIC50 in assay [1] of 7.62.
Regarding `N#Cc1ncc2nc1OCCCCOc1ccc(OCCCCCN3CCCOC3)cc1NC(=O)N2`, the pIC50 in assay [1] is 8.52. This compound also gave a pEC50 with HeLa of less than 4.23.
Regarding `N#Cc1ncc2nc1OCC/C=C\COc1ccc(OCCCCCN3CCOCC3)cc1NC(=O)N2`, the results for the pEC50 in the assay with NCI-H1299 and with HeLa were less than 5.00 and 5.28, respectively. The pIC50 in assay [1] is 8.30.
In turn, `N#Cc1ncc2nc1OC/C=C\COc1ccc(OCCCCCN3CCCOC3)cc1NC(=O)N2` showed a pIC50 in assay [1] of 8.70. The pEC50 with HeLa was less than 4.23.
Regarding `COc1ccc2c(c1)NC(=O)Nc1cnc(C#N)c(n1)OCC/C=C\CO2`, the pEC50 in the assay on NCI-H1299 was less than 5.00; with HeLa it was less than 4.23. In addition, the pIC50 in assay [1] is 7.43.
As to `N#Cc1ncc2nc1OCC/C=C\COc1ccc(Br)cc1NC(=O)N2`, the pEC50 was less than 5.00 with NCI-H1299 and 4.53 in the assay on HeLa. This compound also gave a pIC50 in assay [1] of 7.92.
The matching figures for `N#Cc1ncc2nc1OCCCCCOc1ccc(OCCCCCN3CCOCC3)cc1NC(=O)N2`: less than 5.00, 5.05 and 8.52.
The compound `N#Cc1ncc2nc1OCCCCOc1ccc(OCCCCN3CCOCC3)cc1NC(=O)N2` gave a pIC50 in assay [1] of 8.40. This compound also showed a pEC50 in the assay with HeLa of less than 4.23.
Regarding `CN(C)CCOc1ccc2c(c1)NC(=O)Nc1cnc(C#N)c(n1)OCC/C=C\CO2`, the pEC50 is less than 5.00 in the assay with NCI-H1299 and 4.52 in the assay on HeLa. Also, in assay [1], the pIC50 was 7.82.
On the same counts, the results for `N#Cc1ncc2nc1OCCCCCOc1ccc(CCO)cc1NC(=O)N2` are less than 5.00, less than 4.23 and 7.41.
On the same counts, the results for `N#Cc1ncc2nc1OCCCCCOc1ccc(OCCCN3CCOCC3)cc1NC(=O)N2` are less than 5.00, 5.39 and 8.15.
Take `N#Cc1ncc2nc1OCC/C=C\COc1ccc(CCOC3CCCCO3)cc1NC(=O)N2` (stereo not drawn): the pEC50 in the assay on NCI-H1299 is less than 5.00. Also, the pIC50 in assay [1] was 6.97.
Consider `N#Cc1ncc2nc1OCC/C=C\COc1ccc(O)cc1NC(=O)N2`, for which the values for the pEC50 in the assay with NCI-H1299 and in the assay with HeLa were less than 5.00 and less than 4.23, respectively. The negative logarithm of the IC50 (pIC50) in assay [1] is 7.47.
On the same counts, the results for `N#Cc1ncc2nc1OCC/C=C\COc1ccc(CCCO)cc1NC(=O)N2` are less than 5.00, less than 4.23 and 7.16.
`N#Cc1ncc2nc1OCC/C=C\COc1ccc(Cl)cc1NC(=O)N2`: the pEC50 in the assay with NCI-H1299 is less than 5.00; with HeLa it was 4.92. In assay [1], this compound had a pIC50 of 8.00.
On to `N#Cc1ncc2nc1OCCCCOc1ccc(Cl)cc1NC(=O)N2`, for which the pEC50 in the assay with NCI-H1299 is less than 5.00; with HeLa, less than 4.23.
On to `N#Cc1ncc2nc1OCCCCOc1ccc(OCCCN3CCOCC3)cc1NC(=O)N2`, for which, in assay [1], the pIC50 is 8.70. In addition, in the assay on HeLa, the pEC50 was less than 4.23.
For the compound `N#Cc1ncc2nc1OCCCCCOc1ccccc1NC(=O)N2`, the figures for the pEC50 with NCI-H1299 and with HeLa were less than 5.00 and less than 4.23, respectively. The compound further gave a pIC50 in assay [1] of 7.80.
The matching figures for `Cc1ccc2c(c1)NC(=O)Nc1cnc(C#N)c(n1)OCC/C=C\CO2`: less than 5.00, less than 4.23 and 7.82.
Take `CCOc1ccc(OCC)c(NC(=O)Nc2cnc(C#N)cn2)c1`: in assay [1], the pIC50 was 7.51.
`N#Cc1ncc2nc1OCCCCCOc1ccc(OCCO)cc1NC(=O)N2`: the pEC50 with NCI-H1299 was less than 5.00; with HeLa, less than 4.23. In assay [1], the negative-log IC50 (pIC50) is 7.96.
For `Cc1ccc2c(c1)NC(=O)Nc1cnc(C#N)c(n1)OCCCCCO2`, the pIC50 in assay [1] was 8.10.
Regarding `CCOc1ccc2c(c1)NC(=O)Nc1cnc(C#N)c(n1)OCCCCCO2`, the pEC50 with NCI-H1299 is less than 5.00; in the assay on HeLa it was less than 4.23. The pIC50 in assay [1] is 7.26.
In assay [1], `N#Cc1ncc2nc1OC/C=C\COc1ccc(OCCCN3CCOCC3)cc1NC(=O)N2` gave a pIC50 of 8.40. Further, the pEC50 in the assay on HeLa was less than 4.23.
As to `N#Cc1ncc2nc1OCCCCCOc1ccc(Br)cc1NC(=O)N2`, the pEC50 in the assay with NCI-H1299 is less than 5.00; in the assay on HeLa, 4.28. This compound also showed a pIC50 in assay [1] of 7.92.
The matching figures for `COc1ccc2c(c1)NC(=O)Nc1cnc(C#N)c(n1)OCCCCCO2`: less than 5.00, less than 4.23 and 7.60.
With `N#Cc1ncc2nc1OCC/C=C\COc1ccc(OCCCCN3CCOCC3)cc1NC(=O)N2`, the pIC50 in assay [1] was 8.22.
Consider `N#Cc1ncc2nc1OCC/C=C\COc1ccc(OCCO)cc1NC(=O)N2`, for which the pEC50 is less than 5.00 with NCI-H1299 and less than 4.23 in the assay on HeLa. Moreover, in assay [1], the pIC50 was 7.89.
As for `CC(C)(C)[Si](Oc1ccc2c(c1)NC(=O)Nc1cnc(C#N)c(n1)OCC/C=C\CO2)(c1ccccc1)c1ccccc1`, the pIC50 in assay [1] is less than 5.00.
Turning to `N#Cc1ncc2nc1OCC/C=C\COc1ccccc1NC(=O)N2`, the pEC50 is less than 5.00 with NCI-H1299 and 4.40 with HeLa. The compound further showed a pIC50 in assay [1] of 7.92.

Broadly, the pIC50 is the IC50 on a negative log10 scale, so that one unit is a factor of ten. Broadly, the pEC50 is the negative decadic logarithm of the EC50, by convention in mol/L.
